Source: patent US8697637B2, “Antimicrobial peptides of the cecropin family and therapeutic uses thereof” (Institut de Recherche pour le Developpement (IRD), priority 2010, dated 2014)
In brackets after ≈: the same amount, converted by molar mass. Where a SMILES comes first, the peptide text is derived from it.

How the values were obtained:
Type in all cases: cell-based
[1] = tested on: parasite; experiment: Antiparasitic activity (general statement); settings: general statement in the description
[2] = tested on: Escherichia coli (Gram negative); settings: E. coli, LB medium, 37° C., 24 hours, complete inhibition of growth
Protocol: (§1) The bacteria Escherichia coli (Gram negative) and Micrococcus luteus (Gram positive) are cultivated in an LB (Luria-Bertani) culture medium with and without the peptides GK36 and MK61 to be tested. The bacterial growth is checked after incubation for one night at 37° C. by measuring the change in the absorbance value at 600 nanometres (A600) with the aid of a microplate spectrophotometer. The peptides MK61 and GK36 are incubated for 24 hours with the Gram negative and Gram positive bacteria. The minimum inhibitory concentration (MIC) of the synthetic peptides GK36 and MK61 represents the lowest peptide concentration that is sufficient to inhibit bacterial growth completely.
(§2) The results obtained are shown in FIG. 1 for the bacterium Escherichia coli (Gram negative) and in FIG. 2 for the bacterium Micrococcus luteus (Gram positive).

[3] = tested on: DENV-3; experiment: Inhibition of the infection of C6/36 cells by the dengue virus (RT-PCR); settings: C6/36 cells of Aedes albopictus, 5 or 10 μg/ml, 12 or 24 hours, RT-PCR bands
Protocol: (§3) The C6/36 cells of Aedes albopictus mosquitoes are incubated for one hour at 4° C. with the various dengue viruses ((serotype 1) “DENV-1” or (serotype 2) “DENV-2” or (serotype 3) “DENV-3” or (serotype 4) “DENV-4”) (with “PFUs” (“plaque forming units”) of 1). The cells are then washed three times and incubated for 12 hours or 24 hours at 28° C. in the presence or absence of the peptides GK36 and MK61 to be tested, which are each prepared at concentrations of 5 μg/ml or 10 μg/ml.
(§4) RT-PCR analyses are then carried out on the cell pellets in order to detect the presence of the dengue virus.

[4] = tested on: DENV-2; experiment: as above; settings: C6/36 cells of Aedes albopictus, 5 or 10 μg/ml, 12 or 24 hours, RT-PCR bands
Protocol: as §3, §4

[5] = tested on: DENV-1; experiment: as above; settings: C6/36 cells of Aedes albopictus, 5 or 10 μg/ml, 12 or 24 hours, RT-PCR bands
Protocol: as §3, §4

[6] = tested on: DENV-4; experiment: as above; settings: C6/36 cells of Aedes albopictus, 5 or 10 μg/ml, 12 or 24 hours, RT-PCR bands
Protocol: as §3, §4

[7] = tested on: Micrococcus luteus (Gram positive); experiment: Antibacterial test, bacterial growth in LB medium (A600), MIC; settings: 37° C., 24 hours, complete inhibition of growth
Protocol: as §1, §2

[8] = tested on: dengue virus serotype 2 "DENV-2"; experiment: Inhibition of the infection of dendritic cells by the dengue virus (real-time PCR); settings: peptide at 2.5 μg/ml, DENV-2 MOI 0.4, 48 hours
Protocol: The dendritic cells are incubated for 3 hours at 37° C. in the presence of the dengue virus (they are infected at an “MOI” (“multiplicity of infection”) of 0.4) with and without the peptides MK61 and GK36 to be tested, which are prepared at concentrations of 2.5 μg/ml and 12 μg/ml for MK61 and 2.5 μg/ml for GK36. The supernatant is then withdrawn and the cells are or are not brought into contact with peptide for 48 hours.
Real-time PCR analyses are then carried out. The cell viability is evaluated by flow cytometry, and no cell toxicity is observed.

[9] = tested on: CHIKV-147-2 GFP virus; experiment: Inhibition of the infection of HEK-293T cells by chikungunya virus (GFP, flow cytometry); settings: MOI 1, peptide at 10, 50 and 80 μg/ml, 48 hours
Protocol: The cells, which come from the human cell line HEK-293T (human embryonic kidney 293), are incubated for 2 hours at 37° C. in the presence of CHIKV-147-2 GFP virus (they are infected at an “MOI” of 1) with and without the peptides GK36 and MK61 to be tested, which are each prepared at concentrations of 10 μg/ml, 50 μg/ml and 80 μg/ml. The supernatant is then withdrawn and the cells are or are not brought into contact with peptides for 48 hours. The percentage of cells infected corresponds to the percentage of GFP (“green fluorescent protein”) cells visualised by flow cytometry (10,000 cells were counted per condition).

CC[C@H](C)[C@H](NC(=O)CNC(=O)[C@@H](NC(=O)[C@@H](NC(=O)[C@@H](NC(=O)[C@@H]1CCCN1C(=O)[C@H](CC(C)C)NC(=O)[C@H](C)NC(=O)[C@H](CCCCN)NC(=O)[C@H](CCC(=O)O)NC(=O)[C@H](CO)NC(=O)[C@H](C)NC(=O)[C@H](CCCCN)NC(=O)[C@H](Cc1ccccc1)NC(=O)[C@@H](NC(=O)[C@H](CCCNC(=N)N)NC(=O)[C@H](CCCCN)NC(=O)CNC(=O)[C@H](C)NC(=O)CNC(=O)[C@H](CCC(=O)O)NC(=O)[C@H](CC(C)C)NC(=O)[C@H](CCCCN)NC(=O)[C@H](CCCCN)NC(=O)CNC(=O)[C@H](CC(C)C)NC(=O)[C@H](CCCCN)NC(=O)[C@H](CCCCN)NC(=O)[C@H](CC(C)C)NC(=O)CNC(=O)CN)C(C)C)C(C)C)C(C)C)C(C)C)C(=O)N[C@@H](CCCCN)C(=O)N[C@@H](C)C(=O)N[C@H](C(=O)NCC(=O)N[C@@H](CCCCN)C(=O)O)[C@@H](C)CC [GK36] (H-GGLKKLGKKLEGAGKRVFKASEKALPVVVGIKAIGK-OH; N-terminus and C-terminus assumed)
antiparasitic activity [1]: does not exhibit antiparasitic activity
minimum inhibitory concentration (MIC) [2]: 0.6 µM (≈ 2.21 µg/mL)
inhibition of the infection of C6/36 cells by dengue-3 virus [3]: inhibit the infection
inhibition of the infection of C6/36 cells by dengue-2 virus [4]: inhibit the infection
inhibition of the infection of C6/36 cells by dengue-1 virus [5]: inhibit the infection
inhibition of the infection of C6/36 cells by dengue-4 virus [6]: inhibit the infection
minimum inhibitory concentration (MIC) [7]: 10 µM (≈ 36.8 µg/mL)
inhibition of the infection of the dendritic cells [8]: 35%
inhibition of the infection of HEK-293T cells [9]: inhibits the infection of the HEK-293T cells
